This assay addresses EGFR (UniProt P00533).
Chain of EGFR (P00533 whole entry, looked up): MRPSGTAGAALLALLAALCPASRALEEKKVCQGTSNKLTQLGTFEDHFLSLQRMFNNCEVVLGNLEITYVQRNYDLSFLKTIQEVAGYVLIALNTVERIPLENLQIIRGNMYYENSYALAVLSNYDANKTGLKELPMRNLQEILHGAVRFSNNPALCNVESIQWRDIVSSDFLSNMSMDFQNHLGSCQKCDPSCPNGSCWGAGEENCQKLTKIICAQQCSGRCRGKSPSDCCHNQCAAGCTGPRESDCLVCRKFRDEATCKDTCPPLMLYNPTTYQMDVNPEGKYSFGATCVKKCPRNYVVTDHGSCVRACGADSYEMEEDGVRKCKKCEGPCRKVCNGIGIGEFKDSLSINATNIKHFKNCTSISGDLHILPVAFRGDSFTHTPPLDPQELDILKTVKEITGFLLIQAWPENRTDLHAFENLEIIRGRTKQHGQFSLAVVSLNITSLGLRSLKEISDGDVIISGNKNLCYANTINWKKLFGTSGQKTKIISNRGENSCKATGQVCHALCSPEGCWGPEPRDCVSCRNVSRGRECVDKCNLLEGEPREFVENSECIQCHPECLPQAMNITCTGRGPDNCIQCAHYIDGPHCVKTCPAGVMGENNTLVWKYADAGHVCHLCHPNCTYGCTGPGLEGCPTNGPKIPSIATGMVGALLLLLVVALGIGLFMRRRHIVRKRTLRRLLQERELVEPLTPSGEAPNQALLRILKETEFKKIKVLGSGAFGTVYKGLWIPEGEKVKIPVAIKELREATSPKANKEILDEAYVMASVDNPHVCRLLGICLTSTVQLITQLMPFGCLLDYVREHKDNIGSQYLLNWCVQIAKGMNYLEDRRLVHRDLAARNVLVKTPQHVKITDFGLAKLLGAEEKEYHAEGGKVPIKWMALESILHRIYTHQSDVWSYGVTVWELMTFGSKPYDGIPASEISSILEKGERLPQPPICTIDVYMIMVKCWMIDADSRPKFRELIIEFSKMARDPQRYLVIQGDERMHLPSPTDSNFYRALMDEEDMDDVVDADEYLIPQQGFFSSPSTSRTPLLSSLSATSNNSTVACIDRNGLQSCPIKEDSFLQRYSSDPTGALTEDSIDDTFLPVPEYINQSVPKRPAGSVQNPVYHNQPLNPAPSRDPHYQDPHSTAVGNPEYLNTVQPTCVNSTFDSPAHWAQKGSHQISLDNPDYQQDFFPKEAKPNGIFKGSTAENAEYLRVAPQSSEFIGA
Compound `COc1ccccc1C1Cc2cnc(Nc3ccccc3)nc2N(c2ccccc2)C1=O` (centres undefined) returned an IC50 of less than 10 µM.
Next, `O=C1C(c2cccnc2)Cc2cnc(Nc3ccccc3)nc2N1c1ccccc1` (centres undefined): less than 10 µM.
Consider `COc1ccc(OC)c(C2Cc3cnc(Nc4ccccc4)nc3N(c3ccccc3)C2=O)c1` (centres undefined), for which the IC50 is less than 10 µM.
In the case of `O=C1C(c2ccncc2)Cc2cnc(Nc3ccccc3)nc2N1c1ccccc1` (centres undefined) it was less than 10 µM; in that of `COc1ccc(C2Cc3cnc(Nc4ccccc4)nc3N(c3ccccc3)C2=O)cc1OC` (centres undefined), greater than 10 µM; in that of `COc1ccc(C2Cc3cnc(Nc4ccccc4)nc3N(c3ccccc3)C2=O)cc1` (centres undefined), less than 10 µM.
On to `O=C1C(c2cc(C(F)(F)F)cc(C(F)(F)F)c2)Cc2cnc(Nc3ccccc3)nc2N1c1ccccc1` (centres undefined), for which the half-inhibitory concentration (IC50) was greater than 10 µM.
In the case of `COc1ccc(C2Cc3cnc(Nc4cccnc4)nc3N(CC3CC3)C2=O)cc1` (centres undefined) it was less than 10 µM; in that of `COc1cc(OC)cc(C2Cc3cnc(Nc4ccccc4)nc3N(c3ccccc3)C2=O)c1` (centres undefined), less than 10 µM; in that of `COc1ccc(C2Cc3cnc(Nc4ccc(OC)nc4)nc3N(c3ccccc3)C2=O)cc1` (centres undefined), less than 10 µM.
In the case of `O=C1C(c2c(Cl)cccc2Cl)Cc2cnc(Nc3ccccc3)nc2N1c1ccccc1` (centres undefined) it was less than 10 µM; in that of `COc1ccc(C2Cc3cnc(Nc4ccccc4)nc3N(CC(C)C)C2=O)cc1` (centres undefined), less than 10 µM; in that of `Cc1ccccc1C1Cc2cnc(Nc3ccccc3)nc2N(c2ccccc2)C1=O` (centres undefined), less than 10 µM.
Next, `O=C1C(c2ccccc2)Cc2cnc(Nc3ccccc3)nc2N1c1ccccc1` (centres undefined): less than 10 µM.

The term IC50 denotes the midpoint of a concentration-inhibition curve.

The record behind these values is the Kinase Knowledgebase extract (Sharma et al. 2016).
